The subject of assay [1] is porcine kidney-derived LLC-PK1 cells. The assay is described as follows: Protective effect against oxidized LDL-induced injury of porcine kidney-derived LLC-PK1 cells (1). It counts as cell-based. The conditions noted are these: Sus scrofa, LLC-PK1, 6 h, mean ± standard deviation, read-out: Cytoprotection rate (%). On the procedure:
For the purpose of evaluating in vitro cytoprotective effect of the compounds of the present invention, a cytoprotective study was performed using porcine kidney-derived LLC-PK1 cells (ATCC-CRL-13921) injured by oxidized low-density lipoprotein (oxidized LDL).
Oxidized LDL was prepared by incubating 1 mg/ml of rabbit LDL in PBS (-) in the presence of 10 μM CuSO4 at 37° C. for 24 hours. Cell culture was carried out by plating 1.25×10^4 cells/250 μl/well on a 48-well plate containing M199 medium containing 3% FBS. Test compounds were dissolved or suspended in ethanol and added to the wells in an amount of 1.25 μl/well to a concentration of 0.1, 1 or 10 μM in each well. After 16 hours or immediately after the addition of the compounds, oxidized LDL was added to the wells. Probucol, α-tocopherol and Trolox which is a water-soluble analogue of α-tocopherol were used as reference control compounds. Oxidized LDL was diluted twice with saline and then added to the wells in an amount of 62.5 μl/well to a concentration of 100 μg/ml and the cells were cultured for 6 hours after addition of the oxidized LDL. Then, 162.5 μl/well of the culture medium were collected and measured for the lactate dehydrogenase (LDH) level (LD-L: SIGNA DIAGNOSTICS) having leaked into the medium.
The magnitude of cytoprotective effect was expressed as the cytoprotection rate which was determined by calculating the data assuming that the magnitude in wells containing oxidized LDL is 0% and that the magnitude in wells containing saline is 100%.

Assay [2] concerns puromycin-induced nephrosis model. Kind of assay: Puromycin-induced nephrosis (2), postadministration (in vivo). The conditions noted are these: 200 mg/kg oral once a day from the day following puromycin; for Creatinine: control 0.82 ± 0.07; for Urine nitrogen: control 30.74 ± 10.95; for Creatinine clearance: control 824 ± 108. On the set-up: species or system rat (male SD rats). On the procedure: Effect of the compounds of the present invention on an in vivo renal disease was studied using a puromycin-induced nephrosis model. A puromycin-induced renal failure model was prepared from rats in groups of 5-8 each (6 week-old male SD rats) fed with high-fat diet. High-fat diet feeding was started by free access to high-fat diet (cholesterol level 1.25%) from 7 days before puromycin treatment. Puromycin (puromycin aminonucleoside, SIGMA Chemical Co.) treatment was performed by intraperitoneal administration at a dose of 100 mg/kg. Test compounds were administered as a solution in soybean oil via oral route (4 ml/kg). Control group was orally administered soybean oil alone. Probucol and a water-soluble α-tocopherol analogue, Trolox, were used as reference control compounds. The compounds were orally administered once a day from the following day of the puromycin treatment. Renal functions were determined by using urine and blood samples. The volume of urine, urea nitrogen level and creatinine levels of serum and urine were evaluated to calculate creatinine clearance as an indication of renal functions.

Assay [3] relates to porcine kidney-derived LLC-PK1 cells. The assay is described as follows: Protective effect against oxidized LDL-induced injury of porcine kidney-derived LLC-PK1 cells (2). It counts as cell-based. To be noted: Sus scrofa, LLC-PK1, 6 h, mean ± standard deviation, read-out: Cytoprotection rate (%). On the procedure: For the purpose of evaluating in vitro cytoprotective effect of the compounds of the present invention, a cytoprotective study was performed using porcine kidney-derived LLC-PK1 cells (ATCC-CRL-13921) injured by oxidized low-density lipoprotein (oxidized LDL) in the same manner as in Test example 1 with the exception of some points.
Preparation of oxidized LDL and the conditions for cell culture and addition of test compounds were the same as in Test example 1. However, oxidized LDL was not diluted with saline and added to cells in an amount of 25 μl/well to a concentration of 91 μg/ml and the cells were cultured for 6 hours after addition of the oxidized LDL. Then, 150 μl/well of the culture medium were collected and measured for the lactate dehydrogenase (LDH) level (LD-L: SIGMA DIAGNOSTICS) having leaked in the medium.

Assay [4] has as its system murine mesangial derived MES13 cells. Kind of assay: Protective effect against oxidized LDL-induced injury of murine mesangial cells (in vitro). It counts as cell-based. To be noted: Mus musculus, MES13, 10 h, mean ± standard deviation, read-out: Cytoprotection rate (%). On the procedure:
For the purpose of evaluating in vitro cytoprotective effect of the compounds of the present invention on mesangial cells, a cytoprotective study was performed using murine mesangial derived MES13 cells (ATCC-CRL-1927) injured by oxidized LDL.
Oxidized LDL was prepared in the same manner as in Test example 1. Cell culture was carried out by plating 2.5×10^4 cells/250 μl/well on a 48-well plate using FBS-free medium (mixture of DME medium and F12 medium in a ratio of 3:1). Test compounds were dissolved or suspended in ethanol and added to the wells in an amount of 1.25 μl/well to a concentration of 1 or 10 μM in each well. After 16 hours or immediately after the addition of the compounds, oxidized LDL was added to cells in an amount of 25 μl/well to a concentration of 91 μg/ml and the cells were cultured for 10 hours after addition of the oxidized LDL. Then, 150 μl/well of the culture medium were collected and measured for the lactate dehydrogenase level (LDL: SIGMA DIAGNOSTICS) having leaked in the medium.
The magnitude of cytoprotective effect was expressed as the cytoprotection rate which was determined by calculating the data assuming that the magnitude in wells containing oxidized LDL is 0% and that the magnitude in containing saline is 100%.

The conditions of assay [5]: literature; cited from earlier work.
The mark [6] stands for this setting: compound added 16 hours before adding oxidized LDL.
Setting [7] is: compound added immediately before adding oxidized LDL.

Read-outs that look alike come from different tables or passages of the source.

On to `CC(C)(C)c1cc2c(c(C(C)(C)C)c1O)CC(Cc1ccccc1)(Cc1ccccc1)O2` [Example 16, 4,6-Di-t-butyl-2,2-dibenzyl-5-hydroxy-2,3-dihydrobenzofuran], for which, in assay [1] (setting [6]), the inhibition at 0.1 µM is 12 ± 7.5%, the inhibition at 1 µM amounted to 94.5 ± 4.9% and the inhibition at 10 µM was 98.3 ± 0.3%. In assay [1] (setting [7]), the inhibition at 0.1 µM is -36.7 ± 6.6%, the inhibition at 1 µM is 74.4% and the inhibition at 10 µM is 99.6 ± 0.1%. Besides, in assay [2], the “Creatinine” value came to 0.73 ± 0.06 mg/dL, the “Urine nitrogen” value is 31.82 ± 10.84 mg/dL and the “Creatinine clearance” value worked out at 925 mL/day.
On to `CC(C)(C)c1cc2c(c(C(C)(C)C)c1O)CC1(CCCCCC1)O2` [Example 20, 4,6-Di-t-butyl-5-hydroxy-2,3-dihydrobenzofuran-2-spiro-1'-cycloheptane], for which, in assay [1] (setting [6]), the inhibition at 0.1 µM is -11.3 ± 8.5%, the inhibition at 1 µM is 98.6 ± 1.2% and the inhibition at 10 µM was 106 ± 1.2%. For the same compound, in assay [1] (setting [7]), the inhibition at 0.1 µM is -15.8 ± 8%, the inhibition at 1 µM worked out at 99.9% and the inhibition at 10 µM is 102 ± 4.7%. For the same compound, in assay [2], the “Creatinine” value was found to be 0.61 ± 0.08 mg/dL, the “Urine nitrogen” value is 25.40 ± 10.28 mg/dL and the “Creatinine clearance” value worked out at 1144 ± 172 mL/day.
For the compound `CC1(CNC(N)=S)Cc2c(cc(C(C)(C)C)c(O)c2C(C)(C)C)O1` (centres unmarked) [Example 80, 1-[(4,6-Di-t-butyl-5-hydroxy-2-methyl-2,3-dihydrobenzofuran-2-yl)methyl]thiourea], the inhibition at 0.1 µM was 9.2 ± 1.8% in assay [3] (setting [6]) and -1.3 ± 1.4% in assay [3] (setting [7]). The inhibition at 1 µM in assay [3] (setting [6]) is 23.7 ± 5.8%; in assay [3] (setting [7]), 10.7%; in assay [4] (setting [6]), -7 ± 0.8%; in assay [4] (setting [7]), -1.3 ± 3.4%. In addition, the inhibition at 10 µM in assay [3] (setting [6]) was 102.4 ± 0.5%; in assay [3] (setting [7]) it was 102.6 ± 1%; in assay [4] (setting [6]), 22.1 ± 0.7%; in assay [4] (setting [7]) it was 56.2 ± 2.4%.
For the compound `CC1(CNC(=N)NN)Cc2c(cc(C(C)(C)C)c(O)c2C(C)(C)C)O1` (centres unmarked) [Example 81, 1-Amino-3-[(4,6-di-t-butyl-5-hydroxy-2-methyl-2,3-dihydrobenzofuran-2-yl)methyl]guanidine], the inhibition at 0.1 µM in assay [3] (setting [6]) was determined as 6.9 ± 3.1%; in assay [3] (setting [7]), 8.8 ± 1.6%. Besides, the inhibition at 1 µM is 4.2 ± 5.1% in assay [3] (setting [6]), 37.8% in assay [3] (setting [7]), -3.9 ± 1.5% in assay [4] (setting [6]) and 3.9 ± 2.2% in assay [4] (setting [7]). Moreover, the inhibition at 10 µM in assay [3] (setting [6]) came out at 101.1 ± 0.1%; in assay [3] (setting [7]), 101.3 ± 0.1%; in assay [4] (setting [6]), 7.3 ± 7.2%; in assay [4] (setting [7]), 73.4 ± 3.3%.
Take `CC1(COc2ccc(CNNC(=N)N)cc2)Cc2c(cc(C(C)(C)C)c(O)c2C(C)(C)C)O1` (centres unmarked) [Example 86, 1-{4-[(4,6-Di-t-butyl-5-hydroxy-2-methyl-2,3-dihydrobenzofuran-2-yl)methoxy]benzylamino}guanidine]: the figures for the inhibition at 0.1 µM in assay [3] (setting [6]) and in assay [3] (setting [7]) were -0.4 ± 1.9% and -0.7 ± 2.3%, respectively. The inhibition at 1 µM in assay [3] (setting [6]) was 3.6 ± 5.8%; in assay [3] (setting [7]) it was 0.2%; in assay [4] (setting [6]), -1 ± 11.2%; in assay [4] (setting [7]), 19.8 ± 7%. Besides, the inhibition at 10 µM was 40 ± 2.2% in assay [3] (setting [6]), 102.5 ± 0.5% in assay [3] (setting [7]), -4.3 ± 1.9% in assay [4] (setting [6]) and 78.7 ± 0.7% in assay [4] (setting [7]).
For `CC1(CNNC(=N)N)Cc2c(cc(C(C)(C)C)c(O)c2C(C)(C)C)O1` (centres unmarked) [Example 87, 1-[(4,6-Di-t-butyl-5-hydroxy-2-methyl-2,3-dihydrobenzofuran-2-yl)methylamino]guanidine], the inhibition at 0.1 µM was -7.8 ± 4.4% in assay [3] (setting [6]) and -0.3 ± 0.5% in assay [3] (setting [7]). In addition, the inhibition at 1 µM was 6.5 ± 5.2% in assay [3] (setting [6]), 28.6% in assay [3] (setting [7]), 3.7 ± 3.3% in assay [4] (setting [6]) and 30.3 ± 3.8% in assay [4] (setting [7]). Further, the inhibition at 10 µM in assay [3] (setting [6]) stood at 103.6 ± 0.5%; in assay [3] (setting [7]) it was 101.8 ± 0.6%; in assay [4] (setting [6]) it was 35.5 ± 4.2%; in assay [4] (setting [7]), 86.2 ± 0.6%.
Take `CC(C)(Sc1cc(C(C)(C)C)c(O)c(C(C)(C)C)c1)Sc1cc(C(C)(C)C)c(O)c(C(C)(C)C)c1` [Probucol, probucol, reference compound]: in assay [1] (setting [6]), the inhibition at 0.1 µM is 22.5 ± 15.1%, the inhibition at 1 µM came out at 36.4 ± 13.3% and the inhibition at 10 µM was determined as 99.7 ± 1.1%. In assay [1] (setting [7]), the inhibition at 0.1 µM is -1.8 ± 9.7%, the inhibition at 1 µM was 0.3% and the inhibition at 10 µM worked out at 17 ± 7.8%. Further, in assay [2], the “Creatinine” value stood at 0.98 ± 0.13 mg/dL, the “Urine nitrogen” value stood at 37.53 ± 7.53 mg/dL and the “Creatinine clearance” value came out at 838 ± 187 mL/day.
Consider `Cc1c(C)c2c(c(C)c1O)CCC(C)(C(=O)O)O2` (centres unmarked) [Trolox, reference compound], for which, in assay [1] (setting [6]), the inhibition at 0.1 µM was determined as 0.4 ± 1.3%, the inhibition at 1 µM was 6.4 ± 10.6% and the inhibition at 10 µM was 17.5 ± 16.9%. Also, in assay [1] (setting [7]), the inhibition at 0.1 µM was found to be 0%, the inhibition at 1 µM is -7.1% and the inhibition at 10 µM was -4.9 ± 6.3%. In addition, in assay [2], the “Creatinine” value is 0.96 ± 0.14 mg/dL, the “Urine nitrogen” value worked out at 31.91 ± 11.93 mg/dL and the “Creatinine clearance” value came to 660 mL/day.
Regarding `Cc1c(C)c2c(c(C)c1O)CCC(C)(CCCC(C)CCCC(C)CCCC(C)C)O2` (stereo not drawn) [α-tocopherol, reference compound], in assay [1] (setting [6]), the inhibition at 0.1 µM stood at 7.2 ± 2.2%, the inhibition at 1 µM came to 72.1 ± 13.8% and the inhibition at 10 µM came out at 98.9 ± 1%. In assay [1] (setting [7]), the inhibition at 0.1 µM was -2.8%, the inhibition at 1 µM is 8.2 ± 5.7% and the inhibition at 10 µM worked out at 2.7 ± 2.3%. In assay [5], the “effect on renal disease models / renal functions (in words)” value is given as “its effect is not sufficient”.

Source of the values: patent publication US6133279A, “Therapeutic agents for renal diseases and organ preservatives” (Chugai Seiyaku Kabushiki Kaisha, priority 1996, dated 2000).
